Results: PubChem BioAssay (NCI)
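In this assay, cells in 96-well plates receive the compound at five concentrations for 48 hours. Endpoints are linearly interpolated between the surrounding concentrations. GI50 is the concentration that inhibits growth by half. TGI is the concentration that stops growth completely.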

Tests used:
Experiment in all cases: NCI anticancer screen, dose series, 48 h
[1] = tested on: 786-0 renal
[2] = tested on: A498 renal
[3] = tested on: A549 NSCLC
[4] = tested on: ACHN renal
[5] = tested on: BT-549 breast
[6] = tested on: CAKI-1 renal
[7] = tested on: CCRF-CEM leukemia
[8] = tested on: COLO 205 colon
[9] = tested on: DU-145 prostate
[10] = tested on: EKVX NSCLC
[11] = tested on: HCC-2998 colon
[12] = tested on: HCT-116 colon
[13] = tested on: HCT-15 colon
[14] = tested on: HL-60(TB) leukemia
[15] = tested on: HOP-62 NSCLC
[16] = tested on: HOP-92 NSCLC
[17] = tested on: HS 578T breast
[18] = tested on: HT29 colon
[19] = tested on: IGROV1 ovarian
[20] = tested on: K-562 leukemia
[21] = tested on: KM12 colon
[22] = tested on: LOX IMVI melanoma
[23] = tested on: M14 melanoma
[24] = tested on: MALME-3M melanoma
[25] = tested on: MCF7 breast
[26] = tested on: MDA-MB-231 breast
[27] = tested on: MDA-MB-435
[28] = tested on: MOLT-4 leukemia
[29] = tested on: NCI-H226 lung
[30] = tested on: NCI-H23 lung
[31] = tested on: NCI-H460 lung
[32] = tested on: NCI-H522 lung
[33] = tested on: NCI/ADR-RES ovarian
[34] = tested on: OVCAR-3 ovarian
[35] = tested on: OVCAR-4 ovarian
[36] = tested on: OVCAR-5 ovarian
[37] = tested on: OVCAR-8 ovarian
[38] = tested on: PC-3 prostate
[39] = tested on: RPMI-8226 leukemia
[40] = tested on: RXF 393 renal
[41] = tested on: SF-268 CNS
[42] = tested on: SF-295 CNS
[43] = tested on: SF-539 CNS
[44] = tested on: SK-MEL-2 melanoma
[45] = tested on: SK-MEL-28 melanoma
[46] = tested on: SK-MEL-5 melanoma
[47] = tested on: SK-OV-3 ovarian
[48] = tested on: SN12C renal
[49] = tested on: SNB-19 CNS
[50] = tested on: SNB-75 CNS
[51] = tested on: SR leukemia
[52] = tested on: SW-620 colon
[53] = tested on: T-47D breast
[54] = tested on: TK-10 renal
[55] = tested on: U251 CNS
[56] = tested on: UACC-257 melanoma
[57] = tested on: UACC-62 melanoma
[58] = tested on: UO-31 renal

Compound CN(Cc1cccc(F)c1)c1ccc(CO)c(Cl)c1 has a GI50 [1] of 13 µM, a TGI [1] of 41.2 µM and a GI50 [2] of 0.057 µM. The TGI [2] was 0.189 µM, the GI50 [3] was 4.91 µM and the TGI [3] was 37 µM. The GI50 [4] was 37.3 µM, the TGI [4] was > 100 µM and the GI50 [5] was 17.9 µM. For the same compound, the TGI [5] was 60.9 µM, the GI50 [6] was 3.05 µM and the TGI [6] was > 61.3 µM. For the same compound, the GI50 [7] was 31.1 µM, the TGI [7] was > 100 µM and the GI50 [8] was 5.46 µM. The TGI [8] was 19.3 µM, the GI50 [9] was 29.7 µM and the TGI [9] was > 100 µM. The GI50 [10] was 27.2 µM, the TGI [10] was > 100 µM and the GI50 [11] was 13.2 µM. For the same compound, the TGI [11] was 42.5 µM, the GI50 [12] was 0.392 µM and the TGI [12] was 13.7 µM. The GI50 [13] was 17.7 µM, the TGI [13] was > 83.2 µM and the GI50 [14] was 22 µM. For the same compound, the TGI [14] was > 77.2 µM, the GI50 [15] was 4.84 µM and the TGI [15] was 47.8 µM. The GI50 [16] was 3.37 µM, the TGI [16] was 28.1 µM and the GI50 [17] was 25 µM. For the same compound, the TGI [17] was > 100 µM, the GI50 [18] was 7.02 µM and the TGI [18] was 59.7 µM. The GI50 [19] was 0.361 µM, the TGI [19] was 3.05 µM and the GI50 [20] was 8.99 µM. The TGI [20] was > 100 µM, the GI50 [21] was 20.5 µM and the TGI [21] was 79.6 µM. It also gave a GI50 [22] of 23.5 µM, a TGI [22] of 75.9 µM and a GI50 [23] of 20.4 µM. The TGI [23] was 83 µM, the GI50 [24] was 27.5 µM and the TGI [24] was > 88.9 µM. For the same compound, the GI50 [25] was 1.03 µM, the TGI [25] was 26.3 µM and the GI50 [26] was 24.7 µM. The TGI [26] was > 100 µM, the GI50 [27] was 15.7 µM and the TGI [27] was 57.6 µM. For the same compound, the GI50 [28] was 29 µM, the TGI [28] was > 83.5 µM and the GI50 [29] was 0.123 µM. For the same compound, the TGI [29] was 0.275 µM, the GI50 [30] was 13.3 µM and the TGI [30] was > 92.6 µM. It also gave a GI50 [31] of 1.28 µM, a TGI [31] of 13.5 µM and a GI50 [32] of 24.1 µM. The TGI [32] was 75.5 µM, the GI50 [33] was 17.5 µM and the TGI [33] was 58 µM. It also gave a GI50 [34] of 3.08 µM, a TGI [34] of 15 µM and a GI50 [35] of 1.61 µM. It also gave a TGI [35] of 17 µM, a GI50 [36] of 0.41 µM and a TGI [36] of 2.61 µM. The GI50 [37] was 20.3 µM, the TGI [37] was > 100 µM and the GI50 [38] was 23.7 µM. The TGI [38] was 98.8 µM, the GI50 [39] was 13.3 µM and the TGI [39] was > 68.3 µM. It also gave a GI50 [40] of 8.72 µM, a TGI [40] of 41.7 µM and a GI50 [41] of 34.4 µM. For the same compound, the TGI [41] was > 100 µM, the GI50 [42] was 3.6 µM and the TGI [42] was > 100 µM. For the same compound, the GI50 [43] was 33.2 µM, the TGI [43] was > 100 µM and the GI50 [44] was 8.39 µM. The TGI [44] was 33.7 µM, the GI50 [45] was 20.7 µM and the TGI [45] was > 100 µM. For the same compound, the GI50 [46] was 11 µM, the TGI [46] was 23.3 µM and the GI50 [47] was 11.4 µM. For the same compound, the TGI [47] was 50.4 µM, the GI50 [48] was 22.3 µM and the TGI [48] was > 100 µM. The GI50 [49] was 32.8 µM, the TGI [49] was > 100 µM and the GI50 [50] was 14.4 µM. The TGI [50] was 51.6 µM, the GI50 [51] was 24.4 µM and the TGI [51] was > 88.6 µM. The GI50 [52] was 5.13 µM, the TGI [52] was > 100 µM and the GI50 [53] was 0.548 µM. The TGI [53] was 3.92 µM, the GI50 [54] was 0.186 µM and the TGI [54] was 0.851 µM. The GI50 [55] was 4.57 µM, the TGI [55] was 30.6 µM and the GI50 [56] was 0.304 µM. For the same compound, the TGI [56] was 1.33 µM, the GI50 [57] was 0.288 µM and the TGI [57] was 2.42 µM. The GI50 [58] was 10.3 µM and the TGI [58] was 75.5 µM.
